The values below come from US5985603A, “P2x receptor DNA and protein sequence” (Glaxo Group Limited, priority 1994, dated 1999).

Structures can show the parent of a compound that is named as a salt. A value given as a limit tells only on which side of the number the result lay.

The test system of one experiment is P2X-purinoceptor. Conditions: cited from earlier work.
A further experiment has as its target T1, hP2X (Homo sapiens, UniProt P51575).
T1 construct: expressed in transfected cells; host or cells: Xenopus oocytes injected with in vitro transcribed RNA
T1 sequence (P51575 1-399): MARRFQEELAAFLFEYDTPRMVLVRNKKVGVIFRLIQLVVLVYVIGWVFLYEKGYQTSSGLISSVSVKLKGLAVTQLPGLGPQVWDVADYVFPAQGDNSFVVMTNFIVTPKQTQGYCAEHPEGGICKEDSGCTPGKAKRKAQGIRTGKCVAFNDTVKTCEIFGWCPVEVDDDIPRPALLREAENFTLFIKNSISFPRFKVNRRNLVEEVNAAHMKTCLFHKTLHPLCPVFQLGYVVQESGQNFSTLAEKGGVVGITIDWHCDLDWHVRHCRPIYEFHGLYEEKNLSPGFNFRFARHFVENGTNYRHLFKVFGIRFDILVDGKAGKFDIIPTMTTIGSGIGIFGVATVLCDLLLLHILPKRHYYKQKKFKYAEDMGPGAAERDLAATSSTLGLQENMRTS
As to the kind of experiment: inward currents evoked by purinoceptor agonists in Xenopus oocytes expressing hP2X. It counts as cell-based. The conditions noted are these: for full agonist activity: concentration-response curves; for agonist profile (rank order): oocytes expressing hP2X; for relative potency: relative to ATP, from EEC50. Here is the method:
Human urinary bladder P2X cDNA, subcloned into the pBKCMV expression vector, was linearized with Notl, and transcribed in vitro with T3 polymerase in the presence of cap analogue m7G(5')ppp(5')G. Defolliculated Xenopus oocytes (Bertrand et al, Electrophysiology of neuronal nicotinic acetylcholine receptors expressed in Xenopus oocytes following nuclear injection of genes or cDNAs Meth Neurosci 4: 174-193 (1991)) were injected with 50 ng of human P2X in vitro transcribed RNA, and incubated at 18° C. for 2-6 days in the ND96 solution (mM): NaCl96, KCl2, MgCl2 1, CaCl2 2, sodium pyruvate 5, HEPES 5, ph 7.6-7.5, penicillin (10 U/ml), and streptomycin (10 μg/ml).
Oocytes were placed in a 1 ml chamber and superfused at 2-3 ml/min with ND96 solution with 0.1 mM BaCl2 replacing the 2 mM CaCl2 to prevent activation of endogenous calcium-activated chloride currents (Barish, A transient calcium-dependent chloride current in the immature Xenopus oocytes J Physiol 342: 309-325 (1983)). Currents were measured using a two-electrode voltage-clamp amplifier (Geneclamp Axon Instruments)at a holding potential of -60 mV. Microelectrodes were filled with 3 M KCl (0.5-2 M.OMEGA.). Data were collected using PClamp software (Axon Instruments). […] Antagonists were applied both in the superfusate and together with ATP in the U-tube solution.
Concentration response curves for purinoceptor agonists were fitted with a Hill slope of 1. […] Data are presented throughout as mean ± SEM for a given number of oocytes.

Another experiment relates to P2X mRNA. Conditions: rat, RP2 mRNA; cited from earlier work.
In a further experiment the test system is P2-purinoceptor. Conditions: reported previously for suramin; cited from earlier work.
The next experiment has as its system mouse vas deferens. Conditions: cited from earlier work.
The target of the next experiment is T2, PC12 P2X receptor (Rattus norvegicus, UniProt P49653).
T2 construct: host or cells: HEK293 cells (oocytes are also named for the functional characterisation of clone 3)
T2 sequence (P49653 1-472): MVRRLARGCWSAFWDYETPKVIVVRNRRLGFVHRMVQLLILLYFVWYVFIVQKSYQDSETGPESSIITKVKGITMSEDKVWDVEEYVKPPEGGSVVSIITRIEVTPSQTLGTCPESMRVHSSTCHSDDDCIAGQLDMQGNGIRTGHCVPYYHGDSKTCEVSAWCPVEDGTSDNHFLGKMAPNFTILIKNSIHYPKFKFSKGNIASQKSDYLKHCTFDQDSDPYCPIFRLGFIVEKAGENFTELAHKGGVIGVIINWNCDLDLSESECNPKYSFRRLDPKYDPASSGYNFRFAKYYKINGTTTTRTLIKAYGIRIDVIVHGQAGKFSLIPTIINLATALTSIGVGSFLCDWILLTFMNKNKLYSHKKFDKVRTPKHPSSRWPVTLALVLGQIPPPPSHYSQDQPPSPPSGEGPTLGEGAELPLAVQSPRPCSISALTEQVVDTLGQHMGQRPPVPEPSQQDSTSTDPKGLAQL
The experiment is described as follows: functional properties of cloned P2X receptors (electrical recordings): PC12. It counts as cell-based. As for the experimental part:
(§1) HEK 293 cells were transfected by the lipofectin method (Felgner et al., Proc. Nat'l. Acad. Sci. USA 84 7413-7417 (1987)) with P2X -plasmid. DNA concentration used was 1 mg/2 ml medium placed into a 35 mm petri dish containing four 11 mm diameter coverslips on which HEK cells were placed at 10,000 cells per coverslip. […] Currents were recorded from HEK 293 cells using whole-cell recording methods and the AXOPATCH™ 200 amplifier (Axon Instruments); patch pipettes (5 M.OMEGA.) contained (mM) Cs or K aspartate 140, NaCl 5, EGTA 11, HEPES 5. The external solution was (mM) NaCl 150, KCl2, CaCl2 2, MgCl2 1, HEPES 5 and glucose 11; the pH and osmolarity of both solutions were maintained at 7.3 and 305 mosmol/l respectively. All recordings performed at room temperature. Data acquisition and analysis were performed using pCLAMP™ and AXOGRAPH™ software (Axon Instruments). […] The pH and osmolarity of the solutions were 7.4 and 295 mosmol/l respectively. For single channel measurements, a […]™ 500 amplifier and outside-out recording methods were used (Adelman et al., Neuron 9 209-216 (1992)). Wax-coated patch pipettes (5-10 M.OMEGA.) contained (mM) K-gluconate 115, HEPES 5, BAPTA 5 and MgCl2 0.5, external solution was 96 mM NaCl, 2 mM KCl, 1.8 mM CaCl2, 1 mM MgCl2, 5 mM Hepes pH 7.6, and 5 mM sodium pyruvate.
(§2) The functional characterisation of the clone illustrated in FIG. 2 (referred to herein as clone 3) was carried out by electrical recordings from transfected HEK293 cells and from oocytes injected with the in vitro transcribed RNA, as described in Example 4 for the rat vas deferens P2X receptor. Table A summarizes the main properties of clone 3 as compared to those of rat vas/human bladder cDNA clone, and the PC12 cDNA clone (provided by David Julius and Tony Brake of the University of California at San Francisco).

The target in experiment [1] is T3, rat superior cervical ganglion P2X receptor (clone 3) (Rattus norvegicus, UniProt P51577).
T3 construct: The insert appeared to be a full length cDNA; expressed in transfected cells; host or cells: HEK293 cells transfected with pcDNA3 construct p464 (also oocytes injected with in vitro transcribed RNA)
T3 sequence (P51577 1-388): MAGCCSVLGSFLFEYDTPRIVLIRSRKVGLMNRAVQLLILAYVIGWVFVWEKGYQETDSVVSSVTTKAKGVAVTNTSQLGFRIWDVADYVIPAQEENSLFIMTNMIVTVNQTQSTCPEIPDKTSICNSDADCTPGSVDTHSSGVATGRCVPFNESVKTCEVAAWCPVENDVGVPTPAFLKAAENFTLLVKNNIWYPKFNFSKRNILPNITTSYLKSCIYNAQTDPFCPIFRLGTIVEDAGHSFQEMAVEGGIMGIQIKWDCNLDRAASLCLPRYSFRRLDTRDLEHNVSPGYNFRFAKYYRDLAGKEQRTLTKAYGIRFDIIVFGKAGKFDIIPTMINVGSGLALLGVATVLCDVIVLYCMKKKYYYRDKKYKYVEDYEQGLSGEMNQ
The experiment is described as follows: functional properties of cloned P2X receptors (electrical recordings): clone 3. It counts as cell-based. As for the experimental part:
as §1, §2

Experiment [2] addresses T4, rat vas/human bladder P2X cDNA clone (Homo sapiens, UniProt P51575).
T4 construct: expressed in transfected cells; host or cells: HEK293 cells (oocytes are also named for the functional characterisation)
T4 sequence (P51575 1-399): T1 sequence (P51575 1-399)
The experiment is described as follows: functional properties of cloned P2X receptors (electrical recordings): bladder. It counts as cell-based. Conditions: Table A, parameter (EC50) not given; read-out: agonist profile, bladder. Here is the method: DNA concentration used was 1 mg/2 ml medium placed into a 35 mm petri dish containing four 11 mm diameter coverslips on which HEK cells were placed at 10,000 cells per coverslip. […] Currents were recorded from HEK 293 cells using whole-cell recording methods and the AXOPATCH™ 200 amplifier (Axon Instruments); patch pipettes (5 M.OMEGA.) contained (mM) Cs or K aspartate 140, NaCl 5, EGTA 11, HEPES 5. […] All recordings performed at room temperature. Data acquisition and analysis were performed using pCLAMP™ and AXOGRAPH™ software (Axon Instruments). […] ATP was applied by U-tube typically for 1 s; data was sampled at 5 kHz in 2 s segments beginning 300 ms prior to onset of agonist (ATP) application and filtered at 1 kHz.

For experiment [3], the target named is T5, rat vas deferens P2X receptor (Rattus norvegicus, UniProt P47824).
T5 construct: cRNA in Xenopus oocytes; stably transfected CHO cells
T5 sequence (P47824 1-399): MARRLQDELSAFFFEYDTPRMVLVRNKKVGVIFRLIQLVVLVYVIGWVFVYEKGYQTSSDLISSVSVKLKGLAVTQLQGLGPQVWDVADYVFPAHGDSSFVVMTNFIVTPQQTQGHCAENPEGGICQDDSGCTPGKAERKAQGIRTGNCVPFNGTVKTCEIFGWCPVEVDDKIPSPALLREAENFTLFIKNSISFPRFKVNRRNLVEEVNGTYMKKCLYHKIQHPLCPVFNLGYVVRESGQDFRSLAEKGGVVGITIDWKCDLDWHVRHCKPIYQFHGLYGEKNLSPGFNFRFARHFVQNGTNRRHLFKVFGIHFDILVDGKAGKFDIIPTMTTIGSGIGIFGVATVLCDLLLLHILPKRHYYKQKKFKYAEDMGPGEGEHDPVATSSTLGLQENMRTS
The experiment is described as follows: radioligand binding in CHO cells stably transfected with rat vas deferens P2X receptor. The source says: CHO cells were stably transfected by a method used for other ion channels (Claudio, Meth. Enzymol. 207 391-408 (1992)). Transfection was confirmed by a) electro-physiological recording and b) radioligand binding. […] [^3 H]αβmethyleneATP binding was more than 600 cpm per million transfected cells with less than 80 cpm nonspecific binding.

Consider `CSc1nc(N)c2ncn([C@@H]3O[C@H](COP(=O)(O)OP(=O)(O)OP(=O)(O)O)[C@@H](O)[C@H]3O)c2n1` [2MeSATP, 2-MethylthioATP tetra sodium salt], for which the “agonist potency order in whole tissue studies” value with P2X-purinoceptor was “α,β,-meATP >>2MeSATP≥ATP”. Further, on hP2X, the EC50 turned out to be 0.6 ± 0.1 µM, the full agonist activity result is “full agonists”, the “agonist profile (rank order)” value is recorded as 2MeSATP≥ATP>α,β,-meATP and the relative potency stood at 1.36. Besides, the “comparison of concentration-effect curves” value at hP2X (ATP, 2MeSATP and 2-chloro-ATP) is recorded as “superimposable”.
In the case of `C[C@@H]1C[C@H]2[C@@H]3CCC4=CC(=O)C=C[C@]4(C)[C@@]3(F)[C@@H](O)C[C@]2(C)[C@@]1(O)C(=O)CO` [dexamethasone], the “induction of P2X mRNA in immature thymocytes” value in the experiment on P2X mRNA is recorded as “can be induced in immature thymocytes by dexamethasone”.
Consider `Cc1ccc(C(=O)Nc2ccc(S(=O)(=O)O)c3cc(S(=O)(=O)O)cc(S(=O)(=O)O)c23)cc1NC(=O)c1cccc(NC(=O)Nc2cccc(C(=O)Nc3cc(C(=O)Nc4ccc(S(=O)(=O)O)c5cc(S(=O)(=O)O)cc(S(=O)(=O)O)c45)ccc3C)c2)c1` [suramin], for which the pA2 with P2-purinoceptor is 5.9. Further, the pKB with mouse vas deferens was 5.2. The compound also came in with an IC50 against PC12 P2X receptor of 6 µM. Besides, the “antagonist profile, clone 3 (block)” value in experiment [1] (Table A, concentration not given) is recorded as less than 40%. The “sensitivity of ATP-activated currents to antagonism, compared with rat vas deferens/human bladder and PC12 forms” value in experiment [1] (clone 3 (FIG. 15)) is given as “much less sensitive to antagonism”.
As to `Nc1ncnc2c1ncn2[C@@H]1O[C@H](COP(=O)(O)CP(=O)(O)OP(=O)(O)O)[C@@H](O)[C@H]1O` [α,β-meATP, α,β-methylene ATP lithium salt], the “agonist potency order in whole tissue studies” value in the experiment with P2X-purinoceptor was “α,β,-meATP >>2MeSATP≥ATP”. Further, at hP2X, the EC50 amounted to 3.6 ± 1.6 µM, the full agonist activity entry is reported as “full agonists”, the “agonist profile (rank order)” value is given as 2MeSATP≥ATP>α,β,-meATP and the relative potency was 0.23. For the same compound, on PC12 P2X receptor (Table A, parameter (EC50) not given, read-out: agonist profile, PC12), the EC50 was more than 100 µM. Further, the EC50 in experiment [2] is 3 µM. In [1] (Table A, parameter (EC50) not given, read-out: agonist profile, clone 3), the EC50 was more than 100 µM. Moreover, the agonist action result in [1] (clone 3 (FIG. 14)) is listed as “little or no agonist action”.
Regarding [^3 H]αβmethyleneATP, in [3], the binding result is on record as “more than 600 cpm per million transfected cells” and the nonspecific binding result is “less than 80 cpm”.
